Data from patent US10513694B2, “Thienopyrrole compounds and uses thereof” (PROMEGA CORPORATION, priority 2015, dated 2019).
“Also recorded” adds a separate entry of the source.

Tests used:
[1] = molecular target: NANOLUC® enzyme (Oplophorus gracilirostris, UniProt Q9GV45, A31E/A60N/A81I/F95D/I117V/K70R/L54V/L99Q/M102K/N193R/P142E/Q151K/Q38R/Q45L/V71I/Y165I); assay: Inhibitor IC50 determination (NANOLUC enzyme, furimazine); format: biochemical; conditions: IC50 (uM), 0.4 ng/ml NANOLUC enzyme, final furimazine 10 uM (at Km)
Chain of NANOLUC® enzyme (Q9GV45 28-196 with tags or gaps with the stated changes limits assumed): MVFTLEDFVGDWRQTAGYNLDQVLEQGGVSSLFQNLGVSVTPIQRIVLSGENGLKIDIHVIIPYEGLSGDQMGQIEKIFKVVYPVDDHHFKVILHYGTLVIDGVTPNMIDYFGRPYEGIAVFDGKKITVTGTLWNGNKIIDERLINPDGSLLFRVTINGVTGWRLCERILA

[2] = molecular target: T1, purified Nluc enzyme (Oplophorus gracilirostris, UniProt Q9GV45, A31E/A60N/A81I/F95D/I117V/K70R/L54V/L99Q/M102K/N193R/P142E/Q151K/Q38R/Q45L/V71I/Y165I); format: biochemical; conditions: titration up to 100 μM final; RT 2 hrs; pro-substrate PBI-4442 + DTT
T1 construct: purchased Promega Corporation
T1 sequence (Q9GV45 28-196 with tags or gaps with the stated changes limits assumed): as above
Method: In a Corning 3570 assay plate, purified Nluc enzyme (Promega Corporation), 20 mM DTT, and an Nluc pro-substrate (PBI-4442, which is described in US Patent Publication No. 2013/0130289), which is converted to an Nluc substrate upon reduction with DTT, was added. Compound titrations of JRW-0004, JRW-0013, JRW-0006, JRW-0042, JRW-0138, and JRW-0147 were then made (1:2 serial dilution in PBS, 11 points plus no inhibitor control, starting at 200 μM; 100 μM final concentration in reaction). Compound titrations were added in equal volume to the wells of the assay plate. The reactions were incubated at RT for 2 hrs, and luminescence was measured on Tecan M1000 Pro plate reader. Half-maximal inhibitor (thienopyrrole compound) concentrations (IC50s) were determined using GraphPad Prism 6.03.

[3] = tested on: firefly luciferase, e.g., ULTRAGLO® luciferase; assay: Specificity of inhibition: firefly luciferase activity; format: biochemical; conditions: 1 μM luciferin in Luciferase Detection Reagent; RT 2 hrs
Method: The following example describes the specificity of disclosed thienopyrrole compounds, JRW-0004, JRW-0013, JRW-0006, JRW-0042, JRW-0138, and JRW-0147, to inhibit Nluc luciferase activity versus firefly luciferase activity, e.g., ULTRAGLO® luciferase. In a Corning 3570 assay plate, a solution containing 1 μM luciferin in Luciferase Detection Reagent (Promega Corporation V865/859) was added to the assay wells. An equal volume of titrations the thienopyrrole compounds, JRW-0004, JRW-0013, JRW-0006, JRW-0042, JRW-0138, and JRW-0147 were then added to the wells. The reactions were incubated at RT for 2 hrs, and luminescence was measured on Tecan M1000 Pro plate reader.

[4] = tested on: Beta-2 Adrenergic Receptor-Nluc (B2AR-Nluc) fusion protein; assay: Cell permeability, B2AR-Nluc in HEK293 or HeLa cells -/+ digitonin; format: cell-based
Method: (§1) HEK293 or HeLa cells were transiently transfected with Beta-2 Adrenergic Receptor-Nluc (B2AR-Nluc) fusion protein to anchor and orient Nluc cytosolically. 24 hrs post-transfection, cells were treated with −/+50 μg/mL digitonin to emulate a live and lytic scenario, respectively. Then, intact cells and permeabilized cells were exposed to a compound response curve of thienopyrrole compound up to 2 hrs. 10 μM furimazine (Promega Corp.) was added, and luminescence was measured. If a thienopyrrole compound (inhibitor) was permeable, the dose-response curves for both live and permeabilized cells overlapped. However, if a thienopyrrole compound was impermeable, the EC50 was right-shifted in the live cells relative to the permeabilized cells.

[5] = tested on: Beta-2 Adrenergic Receptor-Nluc (B2AR-Nluc) fusion protein; assay: Cell permeability, B2AR-Nluc in HEK293 -/+ digitonin; format: cell-based; conditions: HEK293 B2AR-Nluc -/+ 50 μg/mL digitonin; up to 2 hrs
Method: as §1, with “HEK293” for “HEK293 or HeLa cells”, “cytosolically and pGEM-3z carrier DNA (1:100).” for “cytosolically.”

[6] = tested on: Nluc-ADRB2 (extracellular Nluc) or ADRB2-Nluc (intracellular Nluc); assay: Cell permeability with bioluminescent imaging (HeLa, Nluc-ADRB2 / ADRB2-Nluc); format: cell-based; conditions: 30 μM compound, 10 μM furimazine
Method: HeLa cells were transiently transfected with Nluc-ADRB2 (extracellular Nluc) or ADRB2-Nluc (intracellular Nluc) to anchor and orient Nluc extracellularly or intracellularly, respectively. 24 hrs post-transfection, cells were treated with −/+30 μM of a thienopyrrole compound, JRW-0147, JRW-0013, and JRW-0344. 10 μM furimazine was added, and luminescence was detected by imaging on the Olympus LV200.

[7] = molecular target: Nluc (Oplophorus gracilirostris, UniProt Q9GV45, A31E/A60N/A81I/F95D/I117V/K70R/L54V/L99Q/M102K/N193R/P142E/Q151K/Q38R/Q45L/V71I/Y165I); assay: Specificity of inhibition of Nluc luciferase: Nluc; format: biochemical
Chain of Nluc (Q9GV45 28-196 with tags or gaps with the stated changes limits assumed): as above

Row | Compound | IC50 [1] | Inhibition of purified Nluc enzyme (FIG. 2) [2] | Inhibition of firefly luciferase activity (FIG. 3) [3] | Cell permeability [4] | Cell permeability, EC50 in Live vs Lytic cells (FIGS. 17A-17C) [5] | Inhibition of Nluc oriented extracellularly / intracellularly by imaging (FIG. 19) [6] | Nluc, Avg (luminescence) ([7]; [cmpd] 0.1953125 μM) | Nluc, S/B ([7]; [cmpd] 0.1953125 μM) | Nluc, Avg (luminescence) ([7]; [cmpd] 0.390625 μM) | Nluc, S/B ([7]; [cmpd] 0.390625 μM) | Nluc, Avg (luminescence) ([7]; [cmpd] 0.78125 μM) | Nluc, S/B ([7]; [cmpd] 0.78125 μM) | Nluc, Avg (luminescence) ([7]; [cmpd] 1.5625 μM) | Nluc, S/B ([7]; [cmpd] 1.5625 μM) | Nluc, Avg (luminescence) ([7]; [cmpd] 3.125 μM) | Nluc, S/B ([7]; [cmpd] 3.125 μM) | Nluc, Avg (luminescence) ([7]; [cmpd] 6.25 μM) | Nluc, S/B ([7]; [cmpd] 6.25 μM) | Nluc, Avg (luminescence) ([7]; [cmpd] 12.5 μM) | Nluc, S/B ([7]; [cmpd] 12.5 μM) | also measured
1 | CCN(C(=O)Cn1c(C(=O)N[C@H]2CC[C@H](C(=O)OC)CC2)cc2sccc21)c1cccc(C)c1 [JRW-0013, trans-methyl-4-(4-(2-(ethyl(m-tolyl)amino)-2-oxoethyl)-4H-thieno[3,2-b]pyrrole-5-carboxamido)cyclohexane-1-carboxylate] | 0.14 µM | capable of inhibiting purified Nluc enzyme | do not inhibit firefly luciferase activity; also recorded: did not inhibit the firefly luciferase activity | cell-permeable | cell permeable control characterized by similar EC50 in Live vs Lytic cells | inhibited Nluc in either orientation |  |  |  |  |  |  |  |  |  |  |  |  |  |  | 
2 | CCN(C(=O)Cn1c(C(=O)N[C@H]2CC[C@H](C(=O)NCCCCCC(=O)O)CC2)cc2sccc21)c1cccc(C)c1 [JRW-0147, 6-(trans-4-(4-(2-(ethyl(m-tolyl)amino)-2-oxoethyl)-4H-thieno[3,2-b]pyrrole-5-carboxamido)cyclohexane-1-carboxamido)hexanoic acid] | 0.094 µM | capable of inhibiting purified Nluc enzyme | do not inhibit firefly luciferase activity; also recorded: did not inhibit the firefly luciferase activity | cell-impermeable | cell impermeable characterized by right shifted EC50 in Live vs. Lytic cells | inhibit the classic ring-like structure, but not when Nluc is orientated intracellularly | 115442 | 0.97 | 113278 | 0.95 | 111603 | 0.94 | 103399 | 0.87 | 96256 | 0.81 | 79191 | 0.67 | 66480 | 0.56 | Nluc, Avg (luminescence) ([7]; [cmpd] 25 μM): 54498; Nluc, S/B ([7]; [cmpd] 25 μM): 0.46; Nluc, Avg (luminescence) ([7]; [cmpd] 50 μM): 42630; Nluc, S/B ([7]; [cmpd] 50 μM): 0.36; Nluc, Avg (luminescence) ([7]; [cmpd] 100 μM): 32702; Nluc, S/B ([7]; [cmpd] 100 μM): 0.27; Nluc, Avg (luminescence) ([7]; [cmpd] 200 μM): 23722; Nluc, S/B ([7]; [cmpd] 200 μM): 0.20
3 | CCN(C(=O)Cn1c(C(=O)N[C@H]2CC[C@H](C(=O)NCCCCCCS(=O)(=O)[O-])CC2)cc2sccc21)c1cccc(C)c1.[Na+] [JRW-0344, Sodium 6-(trans-4-(4-(2-(ethyl(m-tolyl)amino)-2-oxoethyl)-4H-thieno[3,2-b]pyrrole-5-carboxamido)cyclohexane-1-carboxamido)hexane-1-sulfonate] | 0.077 µM |  |  |  | cell impermeable characterized by right shifted EC50 in Live vs. Lytic cells | inhibit the classic ring-like structure, but not when Nluc is orientated intracellularly | 102409 | 0.92 | 99851 | 0.90 | 95060 | 0.86 | 83141 | 0.75 | 71976 | 0.65 | 65136 | 0.59 | 52627 | 0.47 | Nluc, Avg (luminescence) ([7]; [cmpd] 25 μM): 40392; Nluc, S/B ([7]; [cmpd] 25 μM): 0.36; Nluc, Avg (luminescence) ([7]; [cmpd] 50 μM): 32113; Nluc, S/B ([7]; [cmpd] 50 μM): 0.29; Nluc, Avg (luminescence) ([7]; [cmpd] 100 μM): 23445; Nluc, S/B ([7]; [cmpd] 100 μM): 0.21; Nluc, Avg (luminescence) ([7]; [cmpd] 200 μM): 16291; Nluc, S/B ([7]; [cmpd] 200 μM): 0.15
